Laboratory results from ChEMBL document CHEMBL1201862, “PubChem BioAssay data set” (2004).
Activity calls are given as the source filed them.

Legend:
[1] = Counterscreen for IDE inhibitors: Luminescence-based cell-based high throughput dose response assay to identify compounds that are cytotoxic to HEK cells. [Related pubchem assays: 434962 (Primary screen (IDE inhibitors in singlicate)), 449730 (Counterscreen (Cytotoxicity in triplicate)), 435028 (Confirmation (IDE inhibitors in triplicate)) …; type: functional; conditions: HEK293
[2] = molecular target: Large T antigen (Simian virus 40, UniProt P03070); type: functional, Betapolyomavirus macacae;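 also: Confirmatory-stage PubChem screen for compounds that inhibit SV40 T antigen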
[3] = molecular target: T1, Insulin-degrading enzyme (Homo sapiens, UniProt P14735); test: Dose Response: Fluorescence polarization-based cell-based high throughput dose response assay for inhibitors of insulin-degrading enzyme (IDE). [Related pubchem assays: 434962 (Primary screen (IDE inhibitors in singlicate)), 449730 (Counterscreen (Cytotoxicity in triplicate)), 435028 (Confirmation (IDE inhibitors in triplicate)), 434984 (Summary …; type: functional
T1 sequence (P14735 whole entry): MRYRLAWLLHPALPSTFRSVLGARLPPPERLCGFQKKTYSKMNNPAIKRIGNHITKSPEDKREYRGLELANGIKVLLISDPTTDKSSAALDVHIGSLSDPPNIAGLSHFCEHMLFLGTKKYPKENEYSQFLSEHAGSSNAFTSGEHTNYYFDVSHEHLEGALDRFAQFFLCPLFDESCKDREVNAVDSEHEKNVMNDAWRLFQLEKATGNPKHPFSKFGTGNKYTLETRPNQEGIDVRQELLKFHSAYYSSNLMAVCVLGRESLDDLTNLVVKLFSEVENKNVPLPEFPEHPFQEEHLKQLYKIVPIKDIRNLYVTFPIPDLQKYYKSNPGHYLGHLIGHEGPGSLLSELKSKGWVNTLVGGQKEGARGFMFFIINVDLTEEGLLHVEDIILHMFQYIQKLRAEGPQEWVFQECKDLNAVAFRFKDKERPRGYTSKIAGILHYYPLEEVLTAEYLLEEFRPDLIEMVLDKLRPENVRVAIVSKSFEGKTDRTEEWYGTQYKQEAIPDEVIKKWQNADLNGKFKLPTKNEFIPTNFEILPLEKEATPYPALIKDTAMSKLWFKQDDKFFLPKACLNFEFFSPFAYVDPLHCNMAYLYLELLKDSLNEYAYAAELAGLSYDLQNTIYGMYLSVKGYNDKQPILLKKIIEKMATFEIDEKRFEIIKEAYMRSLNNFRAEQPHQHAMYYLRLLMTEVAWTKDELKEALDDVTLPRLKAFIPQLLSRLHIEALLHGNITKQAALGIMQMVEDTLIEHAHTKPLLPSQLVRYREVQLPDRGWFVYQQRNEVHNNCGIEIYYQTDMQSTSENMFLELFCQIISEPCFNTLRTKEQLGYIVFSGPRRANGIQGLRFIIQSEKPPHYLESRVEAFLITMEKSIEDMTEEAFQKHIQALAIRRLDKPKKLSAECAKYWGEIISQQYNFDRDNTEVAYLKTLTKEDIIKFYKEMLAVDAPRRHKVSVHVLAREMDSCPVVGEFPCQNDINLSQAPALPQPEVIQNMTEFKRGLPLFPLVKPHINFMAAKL

[4] = molecular target: T2, Mannose-6-phosphate isomerase (Homo sapiens, UniProt P34949); test: PMI enzyme inhibitors, confirmation, biochemical, fluorescence intensity (AID 1535)
T2 sequence (P34949 whole entry): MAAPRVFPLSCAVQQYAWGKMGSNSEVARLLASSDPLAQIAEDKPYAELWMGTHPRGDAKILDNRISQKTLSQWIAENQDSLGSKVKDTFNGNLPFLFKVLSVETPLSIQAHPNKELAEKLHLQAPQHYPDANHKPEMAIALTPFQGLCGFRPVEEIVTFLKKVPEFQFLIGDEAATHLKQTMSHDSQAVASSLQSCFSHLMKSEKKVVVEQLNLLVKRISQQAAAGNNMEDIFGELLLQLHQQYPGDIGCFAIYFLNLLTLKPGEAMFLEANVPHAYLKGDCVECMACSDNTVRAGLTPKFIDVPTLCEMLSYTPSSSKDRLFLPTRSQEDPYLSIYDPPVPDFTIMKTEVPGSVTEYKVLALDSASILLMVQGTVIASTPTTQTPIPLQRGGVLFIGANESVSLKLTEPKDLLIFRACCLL

[5] = molecular target: DNA dC->dU-editing enzyme APOBEC-3A (Homo sapiens, UniProt P31941); test: APOBEC3A DNA deaminase inhibitors, dose response, biochemical (AID 504722); type: functional
[6] = molecular target: Glucose-6-phosphate 1-dehydrogenase (Homo sapiens, UniProt P11413); test: human G6PD enzyme inhibitors, dose response, selectivity assay for P. falciparum G6PD inhibitor project, biochemical, fluorescence (AID 504792); type: functional
[7] = molecular target: T3, Phosphomannomutase 2 (Homo sapiens, UniProt O15305); test: Counter screen SAR assay for PMM2 inhibitors via a fluorescence intensity assay. [Related pubchem assays (depositor defined):AID1545, AID1574]
T3 sequence (O15305 whole entry): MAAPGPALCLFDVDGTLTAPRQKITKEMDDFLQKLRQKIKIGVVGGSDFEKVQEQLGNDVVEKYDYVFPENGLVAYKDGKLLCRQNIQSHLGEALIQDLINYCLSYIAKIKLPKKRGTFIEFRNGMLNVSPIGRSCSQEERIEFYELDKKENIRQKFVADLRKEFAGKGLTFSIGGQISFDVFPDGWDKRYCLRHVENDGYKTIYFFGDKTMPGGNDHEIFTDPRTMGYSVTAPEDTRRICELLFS

[8] = molecular target: Phosphoethanolamine/phosphocholine phosphatase (Homo sapiens, UniProt Q8TCT1); test: SAR assay for compounds that inhibit PHOSPHO1. [Related pubchem assays (depositor defined):AID1545, AID1565, AID1574]
[9] = molecular target: DNA dC->dU-editing enzyme APOBEC-3G (Homo sapiens, UniProt Q9HC16); test: Dose Response confirmation of small molecule APOBEC3G DNA Deaminase Inhibitors via a fluorescence-based single-stranded DNA deaminase assay. [Related pubchem assays (depositor defined):AID493012, AID493028]; type: functional
[10] = molecular target: T4, Alkaline phosphatase, tissue-nonspecific isozyme (Homo sapiens, UniProt P05186); test: human TNAP enzyme inhibitors, SAR follow-up, biochemical, luminescent, dose response (AID 1056)
T4 sequence (P05186 whole entry): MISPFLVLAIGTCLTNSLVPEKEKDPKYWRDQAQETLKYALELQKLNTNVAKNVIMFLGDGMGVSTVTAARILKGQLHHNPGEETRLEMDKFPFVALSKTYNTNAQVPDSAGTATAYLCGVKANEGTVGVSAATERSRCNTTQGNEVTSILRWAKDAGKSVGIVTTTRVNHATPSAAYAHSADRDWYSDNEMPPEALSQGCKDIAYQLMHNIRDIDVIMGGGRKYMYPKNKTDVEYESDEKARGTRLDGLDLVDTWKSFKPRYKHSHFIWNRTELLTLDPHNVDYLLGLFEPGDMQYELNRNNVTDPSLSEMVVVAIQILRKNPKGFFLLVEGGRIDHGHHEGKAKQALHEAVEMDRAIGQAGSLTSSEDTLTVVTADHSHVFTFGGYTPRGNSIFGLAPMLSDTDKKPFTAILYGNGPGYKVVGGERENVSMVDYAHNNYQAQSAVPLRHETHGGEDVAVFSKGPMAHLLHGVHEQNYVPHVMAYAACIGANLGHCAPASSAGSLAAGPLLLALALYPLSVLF

[11] = molecular target: FAD-linked sulfhydryl oxidase ALR (Homo sapiens, UniProt P55789); test: inhibitors of human ALR sulfhydryl oxidase, dose response, biochemical, H2O2 detection, luminescence, cherry-pick (AID 493248)
[12] = tested on: Vero; test: Vero cell cytotoxicity, cytotoxicity control for flavivirus capping enzyme inhibitors (AID 588742); type: functional; conditions: Chlorocebus sabaeus
[13] = molecular target: Genome polyprotein (dengue virus type 2, UniProt P29990); test: Dengue-2 NS5 methyltransferase inhibitors, primary screen, biochemical, confirmation dose response (AID 588689); type: functional
[14] = molecular target: T5, Orexin receptor type 2 (Homo sapiens, UniProt O43614); test: Counterscreen assay for antagonists of the orexin 1 receptor (OX1R; HCRTR1): Fluorescence-based cell-based dose response assay for antagonists of the orexin 2 receptor (OX2R; HCRTR2), run by assay provider.; type: functional
T5 sequence (O43614 whole entry): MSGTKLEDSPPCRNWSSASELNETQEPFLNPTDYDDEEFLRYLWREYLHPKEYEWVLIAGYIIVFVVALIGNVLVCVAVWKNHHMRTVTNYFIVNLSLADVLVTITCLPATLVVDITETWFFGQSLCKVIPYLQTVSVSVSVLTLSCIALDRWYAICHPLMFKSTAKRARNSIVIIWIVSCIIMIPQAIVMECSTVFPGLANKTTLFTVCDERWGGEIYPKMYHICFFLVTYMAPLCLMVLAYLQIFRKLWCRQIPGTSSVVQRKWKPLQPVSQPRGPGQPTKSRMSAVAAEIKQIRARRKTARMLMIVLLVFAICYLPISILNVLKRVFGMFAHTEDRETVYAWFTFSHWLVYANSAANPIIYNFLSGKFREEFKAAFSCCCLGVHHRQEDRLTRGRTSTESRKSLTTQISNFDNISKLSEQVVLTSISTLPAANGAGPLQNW

[15] = molecular target: T5, Orexin receptor type 2; test: Counterscreen assay for antagonists of the orexin 1 receptor (OX1R; HCRTR1): Homogeneous Time Resolved Fluorescence (HTRF)-based cell-based dose response assay for antagonists of the orexin 2 receptor (OX2R; HCRTR2), run by assay provider.; type: functional
[16] = molecular target: Endoplasmic reticulum aminopeptidase 1 (Homo sapiens, UniProt Q9NZ08); test: ERAP1 aminopeptidase inhibitors, dose response, biochemical, cherry-pick, set 2, plate reader (AID 743314)
[17] = molecular target: DNA (cytosine-5)-methyltransferase 1 (Homo sapiens, UniProt P26358); test: DNMT1 methyltransferase inhibitors, confirmation, biochemical, fluorescent molecular beacon (AID 602386); type: functional
[18] = molecular target: Caspase-6 (Homo sapiens, UniProt P55212); test: human caspase-6 inhibitors, dose response, biochemical, VEID-R110 fluorescence, cherry-pick (AID 720632)
[19] = molecular target: T6, Leucine aminopeptidase (Plasmodium falciparum 3D7, UniProt Q8IL11); test: P. falciparum M17LAP inhibitors, primary screen, biochemical, fluorogenic H-Leu-NHMec substrate, 1536-well (AID 1619); type: functional
T6 sequence (Q8IL11 whole entry): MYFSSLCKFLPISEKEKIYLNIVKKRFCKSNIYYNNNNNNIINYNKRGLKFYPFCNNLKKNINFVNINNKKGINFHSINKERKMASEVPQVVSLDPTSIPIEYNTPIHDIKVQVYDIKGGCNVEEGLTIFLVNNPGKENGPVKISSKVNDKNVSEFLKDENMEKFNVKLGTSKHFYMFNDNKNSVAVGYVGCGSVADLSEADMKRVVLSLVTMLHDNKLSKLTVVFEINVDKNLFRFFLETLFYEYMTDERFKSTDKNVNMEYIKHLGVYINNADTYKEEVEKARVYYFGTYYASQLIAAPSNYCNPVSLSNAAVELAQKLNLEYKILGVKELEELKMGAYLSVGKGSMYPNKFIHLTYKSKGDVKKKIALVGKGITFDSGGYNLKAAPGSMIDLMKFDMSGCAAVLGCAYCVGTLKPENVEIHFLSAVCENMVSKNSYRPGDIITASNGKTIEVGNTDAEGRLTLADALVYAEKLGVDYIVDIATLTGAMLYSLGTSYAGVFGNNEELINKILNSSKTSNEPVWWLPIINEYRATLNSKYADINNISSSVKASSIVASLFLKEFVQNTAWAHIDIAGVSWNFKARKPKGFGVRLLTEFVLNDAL

[20] = molecular target: Cysteine protease ATG4B (Homo sapiens, UniProt Q9Y4P1); type: functional;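 also: Fluorescence-based dose-response confirmation assay measuring inhibition of ATG4B activity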
[21] = molecular target: Phospholipase A2 (Homo sapiens, UniProt P04054); type: functional;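 also: confirmatory dose-response counterscreen on phospholipase A2, testing hits that came from an ultra-high-throughput screen for ATG4B inhibitors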
Sequence of Phospholipase A2 (P04054 whole entry): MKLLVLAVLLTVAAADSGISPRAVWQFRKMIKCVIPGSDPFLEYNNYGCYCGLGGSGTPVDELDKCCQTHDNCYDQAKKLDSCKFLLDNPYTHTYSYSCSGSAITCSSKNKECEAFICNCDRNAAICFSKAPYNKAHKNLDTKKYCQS

Sequence of DNA dC->dU-editing enzyme APOBEC-3G (Q9HC16 whole entry): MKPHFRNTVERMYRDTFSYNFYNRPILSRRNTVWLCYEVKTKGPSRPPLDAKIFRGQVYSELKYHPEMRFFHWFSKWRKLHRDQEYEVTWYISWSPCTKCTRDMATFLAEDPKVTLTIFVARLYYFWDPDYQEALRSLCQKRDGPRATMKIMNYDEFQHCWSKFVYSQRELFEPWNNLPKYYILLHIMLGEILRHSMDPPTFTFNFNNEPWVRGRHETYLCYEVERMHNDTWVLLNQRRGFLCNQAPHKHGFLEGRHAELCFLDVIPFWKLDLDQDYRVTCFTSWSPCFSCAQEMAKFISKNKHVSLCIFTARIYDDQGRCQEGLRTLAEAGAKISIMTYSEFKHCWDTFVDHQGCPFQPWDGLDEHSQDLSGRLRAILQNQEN
Sequence of Genome polyprotein (P29990 2492-3391 limits assumed): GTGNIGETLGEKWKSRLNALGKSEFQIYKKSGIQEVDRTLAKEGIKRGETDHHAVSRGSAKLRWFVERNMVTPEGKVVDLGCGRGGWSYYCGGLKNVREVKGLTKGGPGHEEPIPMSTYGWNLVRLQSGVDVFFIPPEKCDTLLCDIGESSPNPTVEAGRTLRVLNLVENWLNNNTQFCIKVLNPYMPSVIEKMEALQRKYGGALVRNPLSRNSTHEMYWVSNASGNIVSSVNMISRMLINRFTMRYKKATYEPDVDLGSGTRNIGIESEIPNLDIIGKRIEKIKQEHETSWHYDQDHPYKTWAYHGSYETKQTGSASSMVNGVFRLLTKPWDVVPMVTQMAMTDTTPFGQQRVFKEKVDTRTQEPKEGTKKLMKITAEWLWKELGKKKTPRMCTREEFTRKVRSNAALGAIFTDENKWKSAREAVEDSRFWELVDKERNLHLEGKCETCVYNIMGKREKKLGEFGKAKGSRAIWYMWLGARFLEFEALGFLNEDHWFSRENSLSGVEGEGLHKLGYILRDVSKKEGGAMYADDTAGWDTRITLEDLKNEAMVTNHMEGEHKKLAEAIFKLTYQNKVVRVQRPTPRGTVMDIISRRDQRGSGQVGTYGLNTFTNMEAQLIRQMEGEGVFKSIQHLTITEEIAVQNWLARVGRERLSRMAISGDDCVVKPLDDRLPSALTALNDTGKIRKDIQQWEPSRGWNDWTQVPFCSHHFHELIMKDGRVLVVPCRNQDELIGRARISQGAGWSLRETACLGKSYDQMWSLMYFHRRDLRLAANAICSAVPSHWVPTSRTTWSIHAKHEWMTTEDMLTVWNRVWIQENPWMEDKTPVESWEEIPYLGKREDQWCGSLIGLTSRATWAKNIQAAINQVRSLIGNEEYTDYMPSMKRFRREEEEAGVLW
Sequence of Phosphoethanolamine/phosphocholine phosphatase (Q8TCT1 whole entry): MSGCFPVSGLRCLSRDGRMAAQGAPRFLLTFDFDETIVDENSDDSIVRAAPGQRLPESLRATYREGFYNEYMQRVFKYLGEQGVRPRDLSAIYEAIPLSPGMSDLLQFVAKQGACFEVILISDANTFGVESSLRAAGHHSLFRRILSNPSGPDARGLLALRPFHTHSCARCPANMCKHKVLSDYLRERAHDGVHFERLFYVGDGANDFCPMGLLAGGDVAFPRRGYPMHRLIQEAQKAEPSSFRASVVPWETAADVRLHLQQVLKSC
Sequence of Glucose-6-phosphate 1-dehydrogenase (P11413 whole entry): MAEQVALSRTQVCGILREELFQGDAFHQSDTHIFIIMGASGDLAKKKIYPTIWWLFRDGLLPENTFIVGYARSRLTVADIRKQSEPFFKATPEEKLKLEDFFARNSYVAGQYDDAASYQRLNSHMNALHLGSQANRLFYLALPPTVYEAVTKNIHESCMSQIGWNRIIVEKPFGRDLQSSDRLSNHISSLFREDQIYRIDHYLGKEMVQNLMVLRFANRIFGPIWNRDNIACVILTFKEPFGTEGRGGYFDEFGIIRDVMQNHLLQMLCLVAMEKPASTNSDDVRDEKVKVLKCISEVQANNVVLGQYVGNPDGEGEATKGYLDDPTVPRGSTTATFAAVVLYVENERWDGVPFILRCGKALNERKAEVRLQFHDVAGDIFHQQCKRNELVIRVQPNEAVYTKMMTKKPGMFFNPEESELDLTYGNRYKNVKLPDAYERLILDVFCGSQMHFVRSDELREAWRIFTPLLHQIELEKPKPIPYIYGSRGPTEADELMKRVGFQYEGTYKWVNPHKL
Sequence of Endoplasmic reticulum aminopeptidase 1 (Q9NZ08 whole entry): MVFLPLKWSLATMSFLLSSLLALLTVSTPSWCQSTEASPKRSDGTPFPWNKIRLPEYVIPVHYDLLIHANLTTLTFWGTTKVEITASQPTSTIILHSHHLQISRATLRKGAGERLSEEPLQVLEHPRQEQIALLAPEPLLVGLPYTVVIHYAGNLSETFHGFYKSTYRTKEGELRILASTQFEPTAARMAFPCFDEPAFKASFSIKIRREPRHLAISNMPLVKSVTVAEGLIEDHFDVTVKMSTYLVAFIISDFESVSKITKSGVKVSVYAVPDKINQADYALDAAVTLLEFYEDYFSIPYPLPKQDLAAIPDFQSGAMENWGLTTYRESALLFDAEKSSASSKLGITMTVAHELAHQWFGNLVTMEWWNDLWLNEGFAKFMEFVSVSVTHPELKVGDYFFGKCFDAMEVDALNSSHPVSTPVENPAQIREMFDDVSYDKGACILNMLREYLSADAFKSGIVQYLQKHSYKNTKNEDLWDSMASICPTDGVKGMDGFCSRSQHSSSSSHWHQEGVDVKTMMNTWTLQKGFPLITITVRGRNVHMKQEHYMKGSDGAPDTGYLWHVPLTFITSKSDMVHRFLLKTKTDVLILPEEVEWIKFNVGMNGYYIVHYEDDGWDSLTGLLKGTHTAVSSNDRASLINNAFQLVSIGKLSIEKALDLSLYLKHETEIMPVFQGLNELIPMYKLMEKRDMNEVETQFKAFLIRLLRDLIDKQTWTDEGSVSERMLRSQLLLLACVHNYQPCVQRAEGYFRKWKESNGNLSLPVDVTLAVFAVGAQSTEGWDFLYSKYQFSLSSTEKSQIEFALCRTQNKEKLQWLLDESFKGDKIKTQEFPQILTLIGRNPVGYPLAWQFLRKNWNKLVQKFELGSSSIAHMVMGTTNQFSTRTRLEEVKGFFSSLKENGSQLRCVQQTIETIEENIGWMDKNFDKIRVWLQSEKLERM
Sequence of DNA (cytosine-5)-methyltransferase 1 (P26358 whole entry): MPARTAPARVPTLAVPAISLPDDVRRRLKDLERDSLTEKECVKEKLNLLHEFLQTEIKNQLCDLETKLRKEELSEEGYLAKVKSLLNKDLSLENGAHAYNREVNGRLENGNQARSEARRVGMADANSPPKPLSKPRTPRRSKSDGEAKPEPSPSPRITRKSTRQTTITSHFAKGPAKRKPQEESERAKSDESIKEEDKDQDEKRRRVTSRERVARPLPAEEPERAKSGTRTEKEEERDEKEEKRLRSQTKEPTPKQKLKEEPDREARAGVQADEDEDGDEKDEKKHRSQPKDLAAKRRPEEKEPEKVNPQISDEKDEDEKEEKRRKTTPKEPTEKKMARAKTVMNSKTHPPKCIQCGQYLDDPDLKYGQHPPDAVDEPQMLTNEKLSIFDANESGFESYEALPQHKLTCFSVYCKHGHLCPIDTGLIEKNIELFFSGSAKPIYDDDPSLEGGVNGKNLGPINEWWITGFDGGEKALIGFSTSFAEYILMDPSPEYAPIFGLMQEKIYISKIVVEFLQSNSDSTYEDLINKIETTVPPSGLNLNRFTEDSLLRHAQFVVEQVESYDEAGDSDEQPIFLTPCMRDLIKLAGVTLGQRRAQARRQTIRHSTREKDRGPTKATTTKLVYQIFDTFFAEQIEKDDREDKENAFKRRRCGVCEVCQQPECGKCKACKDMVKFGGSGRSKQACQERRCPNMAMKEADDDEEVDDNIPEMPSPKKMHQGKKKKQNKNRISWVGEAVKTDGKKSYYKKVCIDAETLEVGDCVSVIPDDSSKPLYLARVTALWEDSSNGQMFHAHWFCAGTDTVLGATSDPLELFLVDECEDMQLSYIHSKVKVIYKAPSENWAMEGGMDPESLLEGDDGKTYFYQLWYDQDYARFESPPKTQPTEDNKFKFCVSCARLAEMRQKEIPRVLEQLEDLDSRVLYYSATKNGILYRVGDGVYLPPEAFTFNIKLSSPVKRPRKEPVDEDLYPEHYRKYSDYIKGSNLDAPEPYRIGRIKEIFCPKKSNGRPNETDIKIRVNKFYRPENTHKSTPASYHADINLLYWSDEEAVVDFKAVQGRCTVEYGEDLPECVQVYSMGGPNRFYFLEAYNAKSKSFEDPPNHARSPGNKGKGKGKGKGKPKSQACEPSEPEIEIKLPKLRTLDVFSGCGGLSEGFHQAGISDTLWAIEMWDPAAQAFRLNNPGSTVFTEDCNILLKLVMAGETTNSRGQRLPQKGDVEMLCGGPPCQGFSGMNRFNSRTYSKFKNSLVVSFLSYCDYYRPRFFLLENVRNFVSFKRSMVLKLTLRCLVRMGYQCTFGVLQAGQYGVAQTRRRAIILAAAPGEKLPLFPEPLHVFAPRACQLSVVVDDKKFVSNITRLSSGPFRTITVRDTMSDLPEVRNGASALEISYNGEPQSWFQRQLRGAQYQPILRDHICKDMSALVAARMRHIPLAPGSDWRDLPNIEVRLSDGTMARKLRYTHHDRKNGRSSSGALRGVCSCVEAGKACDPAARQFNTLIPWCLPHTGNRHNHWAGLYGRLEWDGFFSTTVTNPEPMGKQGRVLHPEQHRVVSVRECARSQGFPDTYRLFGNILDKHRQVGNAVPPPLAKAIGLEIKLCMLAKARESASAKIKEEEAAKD
Sequence of DNA dC->dU-editing enzyme APOBEC-3A (P31941 whole entry): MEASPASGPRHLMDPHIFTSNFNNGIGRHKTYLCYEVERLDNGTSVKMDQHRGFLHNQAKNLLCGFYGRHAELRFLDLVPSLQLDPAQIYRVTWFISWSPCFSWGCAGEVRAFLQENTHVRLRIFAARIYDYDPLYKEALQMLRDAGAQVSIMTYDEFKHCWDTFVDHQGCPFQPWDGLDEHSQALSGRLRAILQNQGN

With `O=C(O)c1ccccc1NS(=O)(=O)c1cccc(-n2sc3ccccc3c2=O)c1` the IC50 [1] was 34.8 µM (not active), the IC50 [2] was 13.2 µM (active) and the IC50 [3] was 2.1 µM (active). The IC50 [4] was 0.707 µM (active), the IC50 [5] was > 100 µM (inactive) and the IC50 [6] was 17.6 µM (active). The IC50 [7] was 5.15 µM (active), the IC50 [8] was 0.808 µM (active) and the IC50 [9] was 9.14 µM (active). For the same molecule, the IC50 [10] was > 100 µM (inactive), the AC50 [11] was 0.243 µM (active) and the CC50 [12] was > 40 µM (active). For the same molecule, the IC50 [13] was 46.4 µM (active), the IC50 [14] was 6.8 µM (active) and the IC50 [15] was 3.45 µM (active). The AC50 [16] was 0.73 µM (active).

In the case of `O=C(O)CCc1ccc(S(=O)(=O)Nc2cc(C(F)(F)F)ccc2N2CCCC2)cc1`, the IC50 [17] is reported as 11.7 µM (active) and the AC50 [18] is reported as 38.4 µM (active).

For `CCOc1cc(/C=C2/SC(=O)N(CC(=O)N3CCc4ccccc4C3)C2=O)ccc1OCC(=O)O`, the IC50 [19] was 10.6 µM (active), the IC50 [20] was 15 µM (active) and the IC50 [21] was 11 µM (active).
